From publication PMC5821946, “Immunomodulatory Effects of Diterpene Quinone Derivatives from the Roots of Horminum pyrenaicum in Human PBMC” (Oxidative Medicine and Cellular Longevity, 2018) come the findings set out here.

Structures are written as SMILES.

In the first assay the target is T1, indoleamine 2,3-dioxygenase-1 (IDO-1) (Homo sapiens, UniProt P14902).
T1 construct: PBMC were isolated from healthy donors who gave written consent that their donated blood may be used for scientific purposes; endogenous in cells; host or cells: primary human PBMC from healthy blood donors, stimulated with 10 μg/mL PHA
T1 sequence (P14902 whole entry): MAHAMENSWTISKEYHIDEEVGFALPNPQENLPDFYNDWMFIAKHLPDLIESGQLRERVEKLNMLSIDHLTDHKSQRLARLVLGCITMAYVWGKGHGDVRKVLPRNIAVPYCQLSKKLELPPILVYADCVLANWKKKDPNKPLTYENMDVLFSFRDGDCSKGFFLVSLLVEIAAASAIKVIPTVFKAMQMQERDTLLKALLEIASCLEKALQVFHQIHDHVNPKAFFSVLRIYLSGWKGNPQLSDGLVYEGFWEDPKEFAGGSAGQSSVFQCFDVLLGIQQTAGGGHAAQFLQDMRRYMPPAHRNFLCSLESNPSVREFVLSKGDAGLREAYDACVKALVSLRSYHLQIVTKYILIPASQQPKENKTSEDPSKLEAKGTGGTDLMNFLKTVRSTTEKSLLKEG
Put plainly: Tryptophan breakdown to kynurenine (Kyn/Trp by HPLC) in PBMC supernatants after 48 h treatment. Type of assay: cell-based.
Conditions: not given
The procedure:
The study was performed in accordance with the Declaration of Helsinki. PBMC were isolated from healthy donors who gave written consent that their donated blood may be used for scientific purposes, in case when it was not selected for transfusion. The PBMC were isolated by density gradient centrifugation as described earlier.
(§1) The PBMC were either stimulated with 10 μg/mL of the mitogen lectin phytohaemagglutin (PHA) after 30 minutes of treatment, or were left unstimulated. In addition to PHA, the stimulatability of the PBMC was controlled for each experiment by treatment with the lectin concanavalin A (ConA) at a concentration of 10 μg/mL. After 48 h of incubation, cell culture supernatants were collected and stored at −20°C until analysis. In addition, 1-methyl-D-tryptophan (Sigma-Aldrich, Vienna, Austria) was used as a postive control for the suppression of IDO-1 acitivity.
Briefly, the HPLC analysis of tryptophan and kynurenine was performed on a ProStar Varian system (USA) using rp-18 columns (Merck, Germany) and acetate buffer as eluent (flow-rate: 0.9 mL/min) according to the protocol described earlier. 3-Nitro-L-tyrosine (Sigma Aldrich, Austria) was used as an internal standard. Kynurenine and tryptophan standards were purchased from Sigma-Aldrich (Austria). Kynurenine and 3-nitro-L-tyrosine were detected by UV-absorbance at 360 nm wavelength (Shimadzu SPD-6A UV detector, Austria), tryptophan was detected by its fluorescence with an excitation wavelength of 286 nm and an emission wavelength of 366 nm (ProStar 360 detector, Varian, USA). The Kyn/Trp was calculated, which is an estimate of IDO-1 activity and expressed in μmol Kyn / mmol Trp. The sensitivity of the measurements was 0.5 μmol/L kynurenine and 0.1 μmol/L tryptophan.
P-values below 0.05 were considered to indicate significance. Results are expressed as percent of unstimulated and PHA-stimulated control cells and are shown as mean ± standard error of the mean (SEM).
The molecule `CC(C)C1=C(O)C(=O)C2=C(C1=O)[C@H](O)C[C@H]1C(C)(C)CCC[C@]21C` [compound 1, horminone] showed an IC50 of 346 µM.

`C=C1[C@@H](C)CC[C@]2(C)c3c(O)c(OC)c(C(C)C)c(O)c3C(=O)C[C@@H]12` [compound 7, agastol] came in with an IC50 of 165 µM.

`COC1=C(C(C)C)C(=O)c2c(O)cc3c(c2C1=O)C=CCC3(C)C` [compound 8, 3-deoxyagastaquinone] had an IC50 of 79.5 µM.

The molecule `COC1=C(C(C)C)C(=O)c2c(O)cc3c(c2C1=O)C=CC(=O)C3(C)C` [compound 3, agastaquinone] gave an IC50 of 46.3 µM.

In turn, `CC(=O)O[C@@H]1C[C@H]2C(C)(C)CCC[C@]2(C)C2=C1C(=O)C(C(C)C)=C(O)C2=O` [compound 2, 7-O-acetylhorminone] gave an IC50 of 71.7 µM.

Another assay has as its system neopterin formation by GTP-cyclohydrolase 1 (GTP-CH-I) in PBMC. Put plainly: Neopterin formation in PBMC supernatants (ELISA) after 48 h treatment. Type of assay: cell-based, human. Conditions: PHA-stimulated PBMC; data not shown; insufficient repetitions for (1) and (3). Here is the method:
The study was performed in accordance with the Declaration of Helsinki. PBMC were isolated from healthy donors who gave written consent that their donated blood may be used for scientific purposes, in case when it was not selected for transfusion. The PBMC were isolated by density gradient centrifugation as described earlier. After isolation, the cells were washed three times with phosphate buffered saline containing 1 μM ethylenediaminetetraacetic acid and subsequently they were maintained in RPMI 1640 (Sigma Aldrich, Vienna, Austria) supplemented with 2 mM L-glutamine, 10% heat-inactivated fetal calf serum (Biochrom, Germany) and 50 μg/mL gentamicin (Lonza-BioWhittaker, USA), at 37°C in a humidified atmosphere containing 5% CO2.
as §1, with “The cells were seeded in 48-well plates (1.5 × 10^6 cells/mL/well) and treated either with increasing concentrations of the extract, the individual fractions or the pure compounds, dissolved in DMSO. The” for “The”
Neopterin concentrations were measured by ELISA (BRAHMS, Germany), according to the manufacturers' instructions with the detection limit of 2 nmol/L.
The half maximal (50% inhibitory) concentration (IC50) was calculated by using the CalcuSyn software (Biosoft, UK) according the concept of Chou and Talalay. […] P-values below 0.05 were considered to indicate significance. Results are expressed as percent of unstimulated and PHA-stimulated control cells and are shown as mean ± standard error of the mean (SEM).
In the case of `CC(C)C1=C(O)C(=O)C2=C(C1=O)[C@H](O)C[C@H]1C(C)(C)CCC[C@]21C` [compound 1, horminone], the “Inhibition of neopterin formation (in words)” value (“Inhibition” below) is on record as “inhibition of neopterin formation”.

Regarding `C=C1[C@@H](C)CC[C@]2(C)c3c(O)c(OC)c(C(C)C)c(O)c3C(=O)C[C@@H]12` [compound 7, agastol], the “Inhibition” value was “minor”.

Turning to `COC1=C(C(C)C)C(=O)c2c(O)cc3c(c2C1=O)C=CCC3(C)C` [compound 8, 3-deoxyagastaquinone], the “Inhibition” value is given as “inhibition of neopterin formation”.

`COC1=C(C(C)C)C(=O)c2c(O)cc3c(c2C1=O)C=CC(=O)C3(C)C` [compound 3, agastaquinone]: the “Inhibition” value was “no dose-dependent effect”.

For `CC(=O)O[C@@H]1C[C@H]2C(C)(C)CCC[C@]2(C)C2=C1C(=O)C(C(C)C)=C(O)C2=O` [compound 2, 7-O-acetylhorminone], the “Inhibition” value is listed as “inhibition of neopterin formation”.

Regarding `COc1c(O)c2c(c(O)c1C(C)C)C(=O)C[C@H]1C(C)(C)CCC[C@]21C` [compound 6, inuroyleanol], the “Inhibition” value was “no dose-dependent effect”.

As a reminder, the IC50 is the point on the concentration scale where inhibition reaches its midpoint. Lower therefore signals greater potency in that assay.
